Assay results from ChEMBL document CHEMBL1201862, “PubChem BioAssay data set” (2004).
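Following 48 hours of exposure in 96-well plates, responses at five concentrations were used to interpolate endpoints linearly. The concentration for 50% growth inhibition is given as GI50.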 Activity calls are given as the source filed them. Rule as the data show it: active = GI50 up to about 1.1 µM and inactive = higher.

Legend:
Test in all cases: NCI-60 cell line screen, 48 h
SK-MEL-5 = test system: SK-MEL-5
BT-549 = test system: BT-549
SNB-19 = test system: SNB-19
HL-60 = test system: HL-60
OVCAR-3 = test system: OVCAR-3
A498 = test system: A498
UO-31 = test system: UO-31
HCT-15 = test system: HCT-15
T47D = test system: T47D
LOX IMVI = test system: LOX IMVI
COLO 205 = test system: COLO 205
UACC-62 = test system: UACC-62
SNB-75 = test system: SNB-75
K562 = test system: K562
TK-10 = test system: TK-10
A549 = test system: A549
SR = test system: SR
SF-295 = test system: SF-295
MDA-MB-435 = test system: MDA-MB-435
NCI/ADR-RES = test system: NCI/ADR-RES
UACC-257 = test system: UACC-257
NCI-H522 = test system: NCI-H522
DU-145 = test system: DU-145
IGROV-1 = test system: IGROV-1
KM12 = test system: KM12
OVCAR-4 = test system: OVCAR-4
MOLT-4 = test system: MOLT-4
M14 = test system: M14
ACHN = test system: ACHN
SW-620 = test system: SW-620
Malme-3M = test system: Malme-3M
Hs-578T = test system: Hs-578T
SF-539 = test system: SF-539
HT-29 = test system: HT-29
MDA-N = test system: MDA-N
MCF7 = test system: MCF7
HOP-62 = test system: HOP-62
HCC 2998 = test system: HCC 2998
CCRF-CEM = test system: CCRF-CEM
U-251 = test system: U-251
SK-MEL-28 = test system: SK-MEL-28
NCI-H226 = test system: NCI-H226
OVCAR-8 = test system: OVCAR-8
EKVX = test system: EKVX
RPMI-8226 = test system: RPMI-8226
SN12C = test system: SN12C
HOP-92 = test system: HOP-92
NCI-H23 = test system: NCI-H23
MDA-MB-231 = test system: MDA-MB-231
SK-OV-3 = test system: SK-OV-3
HCT-116 = test system: HCT-116
CAKI-1 = test system: CAKI-1
PC-3 = test system: PC-3
OVCAR-5 = test system: OVCAR-5
786-0 = test system: 786-0
RXF 393 = test system: RXF 393
SF-268 = test system: SF-268
SK-MEL-2 = test system: SK-MEL-2
NCI-H460 = test system: NCI-H460

Nc1cc2c3c(cccc3c1)C(=O)N(c1ccc(OCCN3CCCCC3)cc1)C2=O
GI50 (SK-MEL-5): 15.3 µM (inactive)
GI50 (BT-549): 19.7 µM (inactive)
GI50 (SNB-19): 18.3 µM (inactive)
GI50 (HL-60): 4.89 µM (inactive)
GI50 (OVCAR-3): 16.7 µM (inactive)
GI50 (A498): 16 µM (inactive)
GI50 (UO-31): 9.73 µM (inactive)
GI50 (HCT-15): 12.7 µM
GI50 (T47D): 20.4 µM (inactive)
GI50 (LOX IMVI): 14 µM (inactive)
GI50 (COLO 205): 13.4 µM (inactive)
GI50 (UACC-62): 19.1 µM (inactive)
GI50 (SNB-75): 14.6 µM (inactive)
GI50 (K562): 12.1 µM (inactive)
GI50 (TK-10): 16.5 µM (inactive)
GI50 (A549): 13.9 µM (inactive)
GI50 (SR): 14 µM (inactive)
GI50 (SF-295): 16.9 µM (inactive)
GI50 (MDA-MB-435): 24.7 µM (inactive)
GI50 (NCI/ADR-RES): 19.2 µM (inactive)
GI50 (UACC-257): 16 µM (inactive)
GI50 (NCI-H522): 18.5 µM (inactive)
GI50 (DU-145): 16.9 µM (inactive)
GI50 (IGROV-1): 17.6 µM (inactive)
GI50 (KM12): 20 µM (inactive)
GI50 (OVCAR-4): 17.1 µM (inactive)
GI50 (MOLT-4): 12.1 µM (inactive)
GI50 (M14): 15.5 µM (inactive)
GI50 (ACHN): 15.9 µM (inactive)
GI50 (SW-620): 20.6 µM (inactive)
GI50 (Malme-3M): 14.5 µM (inactive)
GI50 (Hs-578T): 27.7 µM (inactive)
GI50 (SF-539): 14 µM (inactive)
GI50 (HT-29): 10.2 µM (inactive)
GI50 (MDA-N): 18.5 µM (inactive)
GI50 (MCF7): 19.1 µM (inactive)
GI50 (HOP-62): 15.8 µM (inactive)
GI50 (HCC 2998): 19.9 µM (inactive)
GI50 (CCRF-CEM): 21.2 µM (inactive)
GI50 (U-251): 22 µM (inactive)
GI50 (SK-MEL-28): 22.2 µM (inactive)
GI50 (NCI-H226): 18.6 µM (inactive)
GI50 (OVCAR-8): 16.1 µM (inactive)
GI50 (EKVX): 20.4 µM (inactive)
GI50 (RPMI-8226): 18.3 µM (inactive)
GI50 (SN12C): 15.9 µM (inactive)
GI50 (HOP-92): 14.9 µM (inactive)
GI50 (NCI-H23): 16.1 µM (inactive)
GI50 (MDA-MB-231): 14.2 µM (inactive)
GI50 (SK-OV-3): 15.1 µM (inactive)
GI50 (HCT-116): 11.3 µM (inactive)
GI50 (CAKI-1): 17.8 µM (inactive)
GI50 (PC-3): 17.4 µM (inactive)
GI50 (OVCAR-5): 20.8 µM (inactive)
GI50 (786-0): 16.9 µM (inactive)
GI50 (RXF 393): 16.7 µM (inactive)
GI50 (SF-268): 19.1 µM (inactive)
GI50 (SK-MEL-2): 17.2 µM (inactive)

Cc1ccc2c(c1)C(C1Cc3c(C)cccc3C1=O)OC2=O (centres undefined)
GI50 (SK-MEL-5): > 100 µM (inactive)
GI50 (BT-549): 86.5 µM (inactive)
GI50 (SNB-19): > 100 µM (inactive)
GI50 (HL-60): > 100 µM (inactive)
GI50 (OVCAR-3): > 100 µM (inactive)
GI50 (A498): > 100 µM (inactive)
GI50 (UO-31): > 100 µM (inactive)
GI50 (HCT-15): 89.7 µM
GI50 (T47D): > 100 µM (inactive)
GI50 (LOX IMVI): > 100 µM (inactive)
GI50 (COLO 205): > 100 µM (inactive)
GI50 (UACC-62): > 100 µM (inactive)
GI50 (SNB-75): 87.7 µM (inactive)
GI50 (K562): > 100 µM (inactive)
GI50 (TK-10): > 100 µM (inactive)
GI50 (A549): > 100 µM (inactive)
GI50 (SR): 91.6 µM (inactive)
GI50 (SF-295): > 100 µM (inactive)
GI50 (MDA-MB-435): > 100 µM (inactive)
GI50 (NCI/ADR-RES): 40.4 µM (inactive)
GI50 (NCI-H460): > 100 µM (inactive)
GI50 (UACC-257): > 100 µM (inactive)
GI50 (NCI-H522): > 100 µM (inactive)
GI50 (DU-145): > 100 µM (inactive)
GI50 (IGROV-1): > 100 µM (inactive)
GI50 (KM12): > 100 µM (inactive)
GI50 (OVCAR-4): > 100 µM (inactive)
GI50 (MOLT-4): > 100 µM (inactive)
GI50 (M14): > 100 µM (inactive)
GI50 (ACHN): > 100 µM (inactive)
GI50 (SW-620): > 100 µM (inactive)
GI50 (Malme-3M): > 100 µM (inactive)
GI50 (Hs-578T): > 100 µM (inactive)
GI50 (SF-539): 95.5 µM (inactive)
GI50 (HT-29): 96.6 µM (inactive)
GI50 (MDA-N): > 100 µM (inactive)
GI50 (MCF7): > 100 µM (inactive)
GI50 (HOP-62): > 100 µM (inactive)
GI50 (HCC 2998): > 100 µM (inactive)
GI50 (CCRF-CEM): > 100 µM (inactive)
GI50 (U-251): 78 µM (inactive)
GI50 (SK-MEL-28): > 100 µM (inactive)
GI50 (NCI-H226): 61.5 µM (inactive)
GI50 (OVCAR-8): > 100 µM (inactive)
GI50 (EKVX): > 100 µM (inactive)
GI50 (RPMI-8226): 63.2 µM (inactive)
GI50 (SN12C): > 100 µM (inactive)
GI50 (HOP-92): > 100 µM (inactive)
GI50 (NCI-H23): > 100 µM (inactive)
GI50 (MDA-MB-231): > 100 µM (inactive)
GI50 (SK-OV-3): > 100 µM (inactive)
GI50 (HCT-116): > 100 µM (inactive)
GI50 (CAKI-1): > 100 µM (inactive)
GI50 (PC-3): > 100 µM (inactive)
GI50 (OVCAR-5): > 100 µM (inactive)
GI50 (786-0): > 100 µM (inactive)
GI50 (RXF 393): 55.3 µM (inactive)
GI50 (SF-268): > 100 µM (inactive)
GI50 (SK-MEL-2): > 100 µM (inactive)

CCOC(=O)c1sc2nc(SC)nc3c2c1N=CN3c1ccc(Br)cc1
GI50 (SK-MEL-5): > 100 µM (inactive)
GI50 (BT-549): > 100 µM (inactive)
GI50 (SNB-19): > 100 µM (inactive)
GI50 (HL-60): > 100 µM (inactive)
GI50 (OVCAR-3): 24.8 µM (inactive)
GI50 (A498): 25.2 µM (inactive)
GI50 (UO-31): > 100 µM (inactive)
GI50 (HCT-15): > 100 µM
GI50 (T47D): > 100 µM (inactive)
GI50 (LOX IMVI): > 100 µM (inactive)
GI50 (COLO 205): > 100 µM (inactive)
GI50 (UACC-62): > 100 µM (inactive)
GI50 (SNB-75): 38.2 µM (inactive)
GI50 (K562): > 100 µM (inactive)
GI50 (TK-10): > 100 µM (inactive)
GI50 (A549): > 100 µM (inactive)
GI50 (SR): > 100 µM (inactive)
GI50 (SF-295): > 100 µM (inactive)
GI50 (MDA-MB-435): > 100 µM (inactive)
GI50 (NCI/ADR-RES): > 100 µM (inactive)
GI50 (NCI-H460): > 100 µM (inactive)
GI50 (UACC-257): > 100 µM (inactive)
GI50 (NCI-H522): > 100 µM (inactive)
GI50 (DU-145): > 100 µM (inactive)
GI50 (IGROV-1): > 100 µM (inactive)
GI50 (KM12): > 100 µM (inactive)
GI50 (OVCAR-4): > 100 µM (inactive)
GI50 (MOLT-4): > 100 µM (inactive)
GI50 (M14): > 100 µM (inactive)
GI50 (ACHN): > 100 µM (inactive)
GI50 (SW-620): > 100 µM (inactive)
GI50 (Malme-3M): > 100 µM (inactive)
GI50 (Hs-578T): 23.1 µM (inactive)
GI50 (HT-29): > 100 µM (inactive)
GI50 (MDA-N): > 100 µM (inactive)
GI50 (MCF7): > 100 µM (inactive)
GI50 (HOP-62): 21.7 µM (inactive)
GI50 (HCC 2998): > 100 µM (inactive)
GI50 (CCRF-CEM): > 100 µM (inactive)
GI50 (U-251): 76.2 µM (inactive)
GI50 (SK-MEL-28): > 100 µM (inactive)
GI50 (NCI-H226): > 100 µM (inactive)
GI50 (OVCAR-8): > 100 µM (inactive)
GI50 (EKVX): > 100 µM (inactive)
GI50 (RPMI-8226): > 100 µM (inactive)
GI50 (SN12C): > 100 µM (inactive)
GI50 (HOP-92): > 100 µM (inactive)
GI50 (NCI-H23): > 100 µM (inactive)
GI50 (MDA-MB-231): > 100 µM (inactive)
GI50 (SK-OV-3): > 100 µM (inactive)
GI50 (HCT-116): > 100 µM (inactive)
GI50 (CAKI-1): 98.9 µM (inactive)
GI50 (PC-3): > 100 µM (inactive)
GI50 (OVCAR-5): > 100 µM (inactive)
GI50 (786-0): 40.1 µM (inactive)
GI50 (RXF 393): 25.4 µM (inactive)
GI50 (SK-MEL-2): > 100 µM (inactive)
